# In ChEMBL document CHEMBL1201862, “PubChem BioAssay data set” (2004):
# Activity calls are given as the source filed them.
# Legend:
# [1] = target: Cytochrome P450 3A4 (Homo sapiens, UniProt P08684); settings: Potency;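 also: confirmatory qHTS run detecting inhibitors and substrates of CYP3A4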
# [2] = target: Heat shock protein HSP 90-alpha (Homo sapiens, UniProt P07900); assay type: functional, organism-based
# [3] = Trypanosoma cruzi growth suppression in host cells – NIH3T3 host cells, beta-gal luminescence, confirmation (AID 2044); assay type: functional, cell-based;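 also: intracellular parasites grown in NIH/3T3 mouse fibroblasts as host cells; luminescent beta-galactosidase reporter signal from transgenic T. cruzi replicating inside host cells; inhibitors lower the luminescence signal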
# [4] = target: T1, Ubiquitin-conjugating enzyme E2 N (Homo sapiens, UniProt P61088); assay type: functional;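 also: Dose-response confirmation in a TR-FRET assay detecting UBC13-driven polyubiquitin chain formation, inhibition measured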
# T1 sequence (P61088 whole entry): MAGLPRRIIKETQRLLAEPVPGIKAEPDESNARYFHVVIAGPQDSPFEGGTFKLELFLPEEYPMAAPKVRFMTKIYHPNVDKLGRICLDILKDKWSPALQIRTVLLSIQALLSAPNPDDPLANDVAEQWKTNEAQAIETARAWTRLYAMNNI
# [5] = NIH3T3 cell viability loss – ATP luminescence, mouse fibroblasts, counter-screen, dose response (AID 2010); assay type: functional, cell-based;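 also: cells exposed to compound for about 90 hours before reading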
# [6] = target: T2, Hexokinase (Trypanosoma brucei, UniProt Q38C41); test: Confirmation assay for inhibitors of Trypanosoma brucei hexokinase 1-Analogue-first series. [Related pubchem assays (depositor defined):AID1430, AID1632, AID2516, AID2560, AID2579, AID2600, AID449725, AID492951]; assay type: functional
# T2 sequence (Q38C41 whole entry): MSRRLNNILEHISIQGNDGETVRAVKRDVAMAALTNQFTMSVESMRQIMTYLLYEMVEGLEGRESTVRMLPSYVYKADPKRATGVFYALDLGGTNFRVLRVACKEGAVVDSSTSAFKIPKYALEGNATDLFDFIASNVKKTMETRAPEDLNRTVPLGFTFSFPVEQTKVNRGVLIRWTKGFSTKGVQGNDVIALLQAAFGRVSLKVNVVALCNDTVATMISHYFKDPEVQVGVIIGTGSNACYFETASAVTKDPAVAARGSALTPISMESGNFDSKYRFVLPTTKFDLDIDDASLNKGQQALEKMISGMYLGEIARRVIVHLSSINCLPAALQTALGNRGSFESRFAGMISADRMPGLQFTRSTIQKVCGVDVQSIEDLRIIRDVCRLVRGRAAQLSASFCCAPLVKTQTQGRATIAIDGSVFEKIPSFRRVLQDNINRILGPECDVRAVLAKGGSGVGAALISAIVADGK
# [7] = system: BJ; test: BJ-TERT-LT-ST fibroblast viability loss – cell-based, RAS-independent, luminescence, dose response (AID 1935); assay type: functional; settings: Homo sapiens;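 also: BJ fibroblasts immortalized with TERT plus LT and ST oncogenes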
# [8] = system: BJ; test: BJ-TERT fibroblast viability loss – cell-based, RAS-independent, luminescence, dose response (AID 1933); assay type: functional; settings: Homo sapiens
# [9] = DRD fibroblast viability loss – cell-based, non-viral oncogenic, luminescence, dose response (AID 1934); assay type: functional; settings: Homo sapiens
# [10] = system: BJ; test: cells; assay type: functional, cell-based; settings: Homo sapiens
# [11] = HEK-293T viability loss after treatment – luminescence, T-cell screen hits, cytotoxicity control for TCR NF-kB inhibitor project, dose response (AID 489026); assay type: functional, cell-based;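 also: cells exposed to compound about 14 hours before the viability readout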
# [12] = target: T3, RNA-binding protein pos-1 (Caenorhabditis elegans, UniProt G5EF15); test: disruptors of C. elegans POS-1 RNA interaction – biochemical, fluorescence polarization, dose response (AID 1964);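 also: purified POS-1 fused to maltose binding protein made in E. coli; potency of compounds blocking POS-1 binding to fluorescent RNA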
# T3 sequence (G5EF15 whole entry): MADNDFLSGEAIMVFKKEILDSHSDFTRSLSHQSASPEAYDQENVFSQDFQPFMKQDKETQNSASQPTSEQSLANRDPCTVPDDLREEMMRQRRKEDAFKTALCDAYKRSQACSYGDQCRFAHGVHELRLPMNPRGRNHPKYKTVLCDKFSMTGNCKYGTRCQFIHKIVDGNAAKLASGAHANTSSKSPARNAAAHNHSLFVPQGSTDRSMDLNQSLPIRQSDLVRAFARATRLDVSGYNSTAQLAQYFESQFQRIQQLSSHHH
# [13] = Luminescence Cell-Based Dose Response HTS to Identify Activators of Luciferase Translation or Activity in H4 […] Cells. [Related pubchem assays: 1829 (Project Summary), 1814 (Primary HTS)]; assay type: functional
# [14] = system: H4; test: Luminescence Cell-Based Dose Response HTS to Identify Activators of 5'UTR Stem-Loop Driven Prion Protein mRNA Translation in H4 Neuroglioblastoma Cells. [Related pubchem assays: 1829 (Project Summary), 1814 (Primary HTS)]; assay type: functional; settings: Homo sapiens
# [15] = Luminescence Cell-Based Dose Confirmation HTS to Identify Activators of 5'UTR Stem-Loop Driven Alpha-Synuclein mRNA Translation in H4 Neuroglioblastoma Cells. [Related pubchem assays: 1829 (Project Summary), 1814 (Primary HTS)]; assay type: functional
# [16] = target: T4, Zinc finger protein mex-5 (Caenorhabditis elegans, UniProt Q9XUB2); test: potency of MEX-5 RNA-binding blockers – biochemical, C. elegans, fluorescence polarization, dose response (AID 1960)
# T4 sequence (Q9XUB2 whole entry): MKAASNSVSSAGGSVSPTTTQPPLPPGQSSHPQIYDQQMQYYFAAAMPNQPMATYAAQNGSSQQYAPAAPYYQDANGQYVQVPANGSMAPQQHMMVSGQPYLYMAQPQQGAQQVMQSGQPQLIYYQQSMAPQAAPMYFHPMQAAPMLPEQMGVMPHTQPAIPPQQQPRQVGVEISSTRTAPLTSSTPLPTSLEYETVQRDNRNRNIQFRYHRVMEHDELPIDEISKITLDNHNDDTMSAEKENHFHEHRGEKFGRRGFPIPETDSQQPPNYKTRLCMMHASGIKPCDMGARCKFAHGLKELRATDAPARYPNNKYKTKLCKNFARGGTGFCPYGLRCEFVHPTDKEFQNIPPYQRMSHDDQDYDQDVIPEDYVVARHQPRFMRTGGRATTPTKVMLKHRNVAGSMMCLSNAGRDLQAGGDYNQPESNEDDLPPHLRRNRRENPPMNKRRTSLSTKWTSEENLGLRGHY
# [17] = target: Induced myeloid leukemia cell differentiation protein Mcl-1 (Homo sapiens, UniProt Q07820); assay type: functional
# Chain of Induced myeloid leukemia cell differentiation protein Mcl-1 (Q07820 whole entry): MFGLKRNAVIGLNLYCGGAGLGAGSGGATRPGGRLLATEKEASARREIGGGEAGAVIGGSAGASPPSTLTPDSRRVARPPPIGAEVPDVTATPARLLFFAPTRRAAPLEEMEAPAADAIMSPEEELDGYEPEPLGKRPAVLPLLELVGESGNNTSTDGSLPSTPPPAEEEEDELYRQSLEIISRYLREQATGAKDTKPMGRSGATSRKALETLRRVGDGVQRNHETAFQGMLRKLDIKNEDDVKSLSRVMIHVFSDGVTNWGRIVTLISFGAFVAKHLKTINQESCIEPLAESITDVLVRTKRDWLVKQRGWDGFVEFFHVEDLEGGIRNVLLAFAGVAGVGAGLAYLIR
# [18] = cells; assay type: functional, cell-based
# [19] = cells; assay type: functional, cell-based; remark: listed apart in the source
# [20] = OVCAR-3 cell viability loss – plate reader, dry powder samples, PAX8 inhibitor project, dose response (AID 743044); assay type: functional, cell-based
# [21] = OVCAR8 cell viability loss – plate reader, dry powder samples, PAX8 project, dose response (AID 743197); assay type: functional, cell-based; settings: OVCAR-8
# [22] = target: Paired box protein Pax-8 (Homo sapiens, UniProt Q06710); test: PAX8 transcriptional activity inhibition in RMG-I – RMG-I cells, luciferase, cherry-pick, dose response (AID 687027); assay type: functional, cell-based;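 also: luciferase reporter driven by Pax8 target thyroperoxidase promoter measured by SteadyGlo luminescence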
# Chain of Paired box protein Pax-8 (Q06710 whole entry): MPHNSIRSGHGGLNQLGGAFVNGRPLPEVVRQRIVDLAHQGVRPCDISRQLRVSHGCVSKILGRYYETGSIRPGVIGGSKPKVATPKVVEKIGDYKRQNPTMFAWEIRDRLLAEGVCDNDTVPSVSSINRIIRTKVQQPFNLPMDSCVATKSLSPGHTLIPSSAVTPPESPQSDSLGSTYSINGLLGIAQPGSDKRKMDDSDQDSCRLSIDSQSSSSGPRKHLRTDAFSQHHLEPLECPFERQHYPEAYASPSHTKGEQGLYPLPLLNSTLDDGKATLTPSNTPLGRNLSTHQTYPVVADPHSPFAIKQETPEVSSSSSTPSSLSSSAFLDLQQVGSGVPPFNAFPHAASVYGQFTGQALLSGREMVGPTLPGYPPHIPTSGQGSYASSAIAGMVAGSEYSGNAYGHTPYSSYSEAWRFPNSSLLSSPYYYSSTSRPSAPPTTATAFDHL
# [23] = cells; assay type: functional
# [24] = THP-1 cell cytotoxicity, dose response, cytotoxicity control for non-replicating M. tuberculosis project (AID 489025); assay type: functional
# [25] = general cell-killing toxicity readout – plate reader, dry powder samples, cytotoxicity control for PAX8 inhibitor project, dose response (AID 743021); assay type: functional, cell-based
# Chain of Cytochrome P450 3A4 (P08684 whole entry): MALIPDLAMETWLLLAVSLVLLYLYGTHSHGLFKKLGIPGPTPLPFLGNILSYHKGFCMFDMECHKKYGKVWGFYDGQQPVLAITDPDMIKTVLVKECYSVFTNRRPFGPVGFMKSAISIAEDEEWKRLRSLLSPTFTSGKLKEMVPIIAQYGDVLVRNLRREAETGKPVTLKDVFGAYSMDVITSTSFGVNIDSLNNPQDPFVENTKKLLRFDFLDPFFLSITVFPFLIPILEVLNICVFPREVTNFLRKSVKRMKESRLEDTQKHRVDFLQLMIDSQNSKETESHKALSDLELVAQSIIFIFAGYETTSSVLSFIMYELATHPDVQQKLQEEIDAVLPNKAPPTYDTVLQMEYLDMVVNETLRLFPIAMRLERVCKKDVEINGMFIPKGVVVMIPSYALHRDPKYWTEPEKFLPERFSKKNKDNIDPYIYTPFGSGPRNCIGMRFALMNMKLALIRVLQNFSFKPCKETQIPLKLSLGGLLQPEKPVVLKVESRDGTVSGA
smiles,measurement,setting,value
COCCNc1nc(C)nc2c1nc(-c1ccccc1)n2CCCN1CCCCC1C (stereo not given),AC50,[1],3.98 µM (inconclusive)
COC(=O)c1ccc(N2C(=O)CC(N3CCC(O)(c4ccc(Br)cc4)CC3)C2=O)cc1 (stereo not given),AC50,[2],2.85 µM (active)
COc1cc(-c2[nH]c(C(=O)NC3CCN(Cc4ccccc4)CC3)cc3c4ccccc4nc2-3)cc(OC)c1OC,EC50,[3],0.125 µM (active)
same,IC50,[4],> 20 µM (inactive)
same,EC50,[5],5.61 µM (active)
O=c1c2ccccc2on1-c1ccccc1,IC50,[6],> 25 µM (inactive)
COC(=O)c1cc(OC)c(=O)c2c(OC)c(OC)ccc2c1 [METHYL 7-DESOXYPURPUROGALLIN-7-CARBOXYLATE TRIMETHYL ETHER],AC50,[1],39.8 µM (inconclusive)
CC(Oc1ccc(Cl)cc1Cl)C(=O)Nc1ccncc1 (stereo not given),EC50,[7],> 150 µM (not active)
same,EC50,[8],> 150 µM (not active)
same,EC50,[9],> 150 µM (not active)
same,EC50,[10],23.9 µM (active)
same,IC50,[11],> 80 µM (inactive)
COc1ccccc1C(=O)Nc1cc(Cl)ccc1C(=O)O,IC50,[6],> 25 µM (inactive)
O=C(/C=C/N1CCOCC1)c1ccc(-c2ccccc2)cc1,EC50,[12],> 300 µM (not active)
same,EC50,[13],36.8 µM (active)
same,EC50,[14],57.7 µM (active)
same,EC50,[15],3.53 µM (active)
same,EC50,[16],> 300 µM (not active)
same,AC50,[2],1.68 µM (active)
COc1ccc(-c2nnc(SCC(=O)Oc3ccc(C)cc3)o2)cc1,AC50,[2],2.53 µM (active)
O=C(Nc1ccccc1)n1sc2ccccc2c1=O,IC50,[6],> 25 µM (inactive)
O=c1cc(-c2ccccc2O)oc2c(O)c(O)ccc12,AC50,[1],31.6 µM (inconclusive)
COC(=O)c1cccc(C23CC4(C2)[C@H](CN(C)[C@@H]4c2ccccc2)C3c2ccc(Cl)nc2)c1 (stereo not given in full),AC50,[1],5.01 µM (inconclusive)
O=C(Nc1ccc(S(=O)(=O)Nc2ccc(F)cc2)cc1)c1ccc(CN2CCOCC2)cc1,IC50,[11],> 80 µM (inactive)
CCN(/N=C/c1ccc(N(C)C)cc1)c1nc2ccccc2[nH]1,IC50,[17],1.44 µM (active)
COc1ccccc1N1CCN(CCCNC(=O)C2CCCN(c3ncnc4c3nc3n4CCCCC3)C2)CC1 (stereo not given),EC50,[18],> 350 µM (not active)
same,EC50,[19],> 350 µM (not active)
CCc1ccc(NC(=O)COC(=O)c2cccs2)cc1,EC50,[18],> 350 µM (not active)
same,EC50,[19],79.4 µM (active)
Cc1nnc(C)n1/N=C/c1cc(Br)cc(Br)c1O,AC50,[2],1.68 µM (active)
CN(C)c1ccc(NC(=O)/C=C/c2ccccc2Cl)cc1,IC50,[17],> 54 µM (active)
CC(C)(O)C(=O)Nc1ccc([N+](=O)[O-])c(C(F)(F)F)c1 [HYDROXYFLUTAMIDE],AC50,[1],25.1 µM (inconclusive)
Clc1cccc(Cl)c1/C=N/Nc1c(Cl)cncc1Cl,EC50,[7],76.6 µM (active)
same,EC50,[8],13.7 µM (active)
same,EC50,[9],4.33 µM (active)
same,EC50,[10],> 150 µM (inconclusive)
same,IC50,[11],> 80 µM (inactive)
C[C@H](CO)N1C[C@H](C)[C@H](CN(C)Cc2ccc(C(F)(F)F)cc2)OCCCC[C@H](C)Oc2ccc(NC(=O)CCC(F)(F)F)cc2C1=O,AC50,[20],14.8 µM (active)
same,AC50,[21],63.8 µM (active)
same,AC50,[22],5.89 µM (active)
CCOc1ccc(N2C(=O)CC(Sc3nc(C)cc(C)n3)C2=O)cc1 (stereo not given),EC50,[18],> 350 µM (not active)
same,EC50,[19],> 350 µM (not active)
O=C(Nc1cc(Cl)ccc1C(=O)O)c1ccncc1,IC50,[6],> 25 µM (inactive)
COc1ccc(OC)c(NC(=O)CCc2nnc3ccc(NCc4ccco4)nn23)c1,EC50,[18],> 350 µM (not active)
same,EC50,[19],> 350 µM (not active)
C[C@H]1CCCCO[C@@H](CN(C)Cc2ccc3c(c2)OCO3)[C@@H](C)CN([C@@H](C)CO)C(=O)c2cc(NC(=O)Nc3ccc(F)cc3)ccc2O1,AC50,[20],31.2 µM (active)
same,AC50,[22],22 µM (active)
COc1ccccc1NC(=O)COC(=O)C12CC3CC(CC(Br)(C3)C1)C2,IC50,[4],> 20 µM (inactive)
O=c1c2ccc(Br)cc2sn1-c1ccccc1,IC50,[6],3.61 µM (active)
CN1CC(=O)N=C1NC(=O)C12CC3CC(CC(C3)C1)C2,IC50,[23],23.9 µM (active)
same,CC50,[24],> 40 µM (active)
C[C@@H]1CN([C@@H](C)CO)S(=O)(=O)c2ccc(C#Cc3ccccc3F)cc2O[C@H]1CN(C)C(=O)Cc1ccccc1,AC50,[20],14.5 µM (active)
same,AC50,[21],37.6 µM (active)
same,AC50,[22],5.88 µM (active)
same,AC50,[25],25.5 µM (active)
CCCCCCC(=O)N(O)C1CC(=O)N(c2ccc(Cl)cc2)C1=O (stereo not given),AC50,[2],1.64 µM (active)
NC(=S)NNC(=O)c1cc(C(F)(F)F)cc(C(F)(F)F)c1,EC50,[18],> 350 µM (not active)
same,EC50,[19],> 350 µM (not active)
CC1(C)CCC2(C(=O)O)CC[C@]3(C)C(=CCC4[C@]5(C)CCC(O)C(C)(C)C5C(O)C[C@]43C)C2C1 (stereo not given in full),AC50,[1],2.51 µM (inconclusive)
CC1(C)CC[C@]2(C(=O)O)CC[C@]3(C)C(=CCC4[C@@]5(C)CC[C@H](O)C(C)(C)C5[C@H](O)C[C@]43C)C2C1 (stereo not given in full),AC50,[1],25.1 µM (inconclusive)
